From patent publication US20130089641A1

Key:
[1] = fifth experiment: releasable iron in soymilk with 30 ppm ferrous gluconate and VC, NaVC, KVC or CaVC additive; assay type: in vitro ADME; settings: for average iron release rate / average relative release rate: soymilk with 30 ppm ferrous gluconate
Text: (§1) In which, “in vitro digestion and dialysis” is used in the experiments for determining the releasable iron in human body after the foods are digested.

[2] = second experiment: releasable iron in soymilk with iron salts added by concentration gradients
Text: as §1

[3] = first experiment: in vitro digestion and dialysis of soymilk with ascorbic acid or calcium ascorbate, releasable iron; assay type: in vitro ADME; settings: soymilk, equivalent additive dosage 175 mg/100 mL
Text: For improving that, a first experiment in the present invention is done, that is, to respectively add the ascorbic acid and the calcium ascorbate into the soymilk and determine the concentration of the releasable iron thereof. Please refer to following Table (1), which is a statistical table of the releasable iron concentration in the soymilk.

[4] = sixth experiment: releasable iron in soymilk with 30 ppm ferrous gluconate and sodium isoascorbate additive; assay type: in vitro ADME; settings: soymilk with 30 ppm ferrous gluconate
Text: However, everyone knows that vitamin C includes a stereoisomer called isoascorbic acid, and the physical and chemical properties of the isoascorbic acid are similar to the vitamin C.

[5] = soymilk with 30 ppm iron as ferrous gluconate
[6] = sodium isoascorbate 28.6 mg/100 mL
[7] = sodium isoascorbate 57.1 mg/100 mL
[8] = sodium isoascorbate 85.7 mg/100 mL
[9] = sodium isoascorbate 114.3 mg/100 mL
[10] = sodium isoascorbate 142.9 mg/100 mL
[11] = sodium isoascorbate 171.4 mg/100 mL
[12] = sodium isoascorbate 200.0 mg/100 mL
[13] = sodium isoascorbate 228.6 mg/100 mL
[14] = sodium isoascorbate 257.1 mg/100 mL
[15] = sodium isoascorbate 285.7 mg/100 mL
[16] = sodium isoascorbate 314.3 mg/100 mL
[17] = sodium isoascorbate 342.9 mg/100 mL
[18] = sodium isoascorbate 371.4 mg/100 mL
[19] = sodium isoascorbate 400.0 mg/100 mL
[20] = sodium isoascorbate 428.6 mg/100 mL
[21] = sodium isoascorbate 457.1 mg/100 mL
[22] = sodium isoascorbate 485.7 mg/100 mL
[23] = sodium isoascorbate 514.3 mg/100 mL
[24] = sodium isoascorbate 542.9 mg/100 mL
[25] = sodium isoascorbate 571.4 mg/100 mL
[26] = average additive dosage of ascorbic acid ions 25 ppm
[27] = average additive dosage of ascorbic acid ions 50 ppm
[28] = average additive dosage of ascorbic acid ions 75 ppm
[29] = average additive dosage of ascorbic acid ions 100 ppm
[30] = average additive dosage of ascorbic acid ions 125 ppm
[31] = average additive dosage of ascorbic acid ions 150 ppm
[32] = average additive dosage of ascorbic acid ions 175 ppm
[33] = average additive dosage of ascorbic acid ions 200 ppm
[34] = average additive dosage of ascorbic acid ions 225 ppm
[35] = average additive dosage of ascorbic acid ions 250 ppm
[36] = average additive dosage of ascorbic acid ions 275 ppm
[37] = average additive dosage of ascorbic acid ions 300 ppm
[38] = average additive dosage of ascorbic acid ions 325 ppm
[39] = average additive dosage of ascorbic acid ions 350 ppm
[40] = average additive dosage of ascorbic acid ions 375 ppm
[41] = average additive dosage of ascorbic acid ions 400 ppm
[42] = average additive dosage of ascorbic acid ions 425 ppm
[43] = average additive dosage of ascorbic acid ions 450 ppm
[44] = average additive dosage of ascorbic acid ions 475 ppm
[45] = average additive dosage of ascorbic acid ions 500 ppm

## ferrous gluconate
[1]; [5]
  releasable iron concentration before adding the ascorbic acid iron: 2.08 ppm
  the most effective additive dosage for ascorbic acid iron: 50 mg/100 ml
[1]; soymilk with 30 ppm iron as ferrous gluconate, after/before adding the ascorbic acid iron
  release promoting rate of iron: 458%
[1]; soymilk with 30 ppm iron as ferrous gluconate, at the most effective additive dosage 50
  releasable iron concentration after adding the ascorbic acid iron: 9.53 ppm
[2]; additive dosage of iron 10 ppm
  concentration of releasable iron: 1.61 ppm
[2]; additive dosage of iron 20 ppm
  concentration of releasable iron: 2.05 ppm
[2]; additive dosage of iron 30 ppm
  concentration of releasable iron: 2.08 ppm
[2]; additive dosage of iron 40 ppm
  concentration of releasable iron: 2.68 ppm
[2]; additive dosage of iron 50 ppm
  concentration of releasable iron: 3.15 ppm
[2]; additive dosage of iron 60 ppm
  concentration of releasable iron: 4.06 ppm
[2]; additive dosage of iron 70 ppm
  concentration of releasable iron: 3.98 ppm
[2]; additive dosage of iron 75 ppm
  concentration of releasable iron: 3.87 ppm
[2]; point where releasable iron starts to rise with additive dosage
  initially inhibiting concentration: 30 ppm

## calcium ascorbate [CaVC]
[3]
  iron release rate: 48.75%
  releasable iron: 1.95 ppm
[3]; relative to ferrous sulfate aqueous solution
  relative release rate: 96.75%

## O=C1O[C@H]([C@H](O)CO)C([O-])=C1O.[Na+] [sodium isoascorbate]
[4]; [6]
  iron release rate: 23.37%
  relative release rate: 46.37%
  releasable iron concentration: 7.01 ppm
[4]; [7]
  iron release rate: 28.20%
  relative release rate: 55.96%
  releasable iron concentration: 8.46 ppm
[4]; [8]
  iron release rate: 33.67%
  relative release rate: 66.81%
  releasable iron concentration: 10.10 ppm
[4]; [9]
  iron release rate: 34.23%
  relative release rate: 67.94%
  releasable iron concentration: 10.27 ppm
[4]; [10]
  iron release rate: 36.17%
  relative release rate: 71.77%
  releasable iron concentration: 10.85 ppm
[4]; [11]
  iron release rate: 38.73%
  relative release rate: 76.87%
  releasable iron concentration: 11.62 ppm
[4]; [12]
  iron release rate: 41.53%
  relative release rate: 82.42%
  releasable iron concentration: 12.46 ppm
[4]; [13]
  iron release rate: 41.90%
  relative release rate: 83.15%
  releasable iron concentration: 12.57 ppm
[4]; [14]
  iron release rate: 43.20%
  relative release rate: 85.73%
  releasable iron concentration: 12.96 ppm
[4]; [15]
  iron release rate: 45.80%
  relative release rate: 90.89%
  releasable iron concentration: 13.74 ppm
[4]; [16]
  iron release rate: 46.30%
  relative release rate: 91.88%
  releasable iron concentration: 13.89 ppm
[4]; [17]
  iron release rate: 47.77%
  relative release rate: 94.79%
  releasable iron concentration: 14.33 ppm
[4]; [18]
  iron release rate: 48.60%
  relative release rate: 96.45%
  releasable iron concentration: 14.58 ppm
[4]; [19]
  iron release rate: 48.73%
  relative release rate: 96.71%
  releasable iron concentration: 14.62 ppm
[4]; [20]
  iron release rate: 49.30%
  relative release rate: 97.84%
  releasable iron concentration: 14.79 ppm
[4]; [21]
  iron release rate: 49.23%
  relative release rate: 97.70%
  releasable iron concentration: 14.77 ppm
[4]; [22]
  iron release rate: 49.60%
  relative release rate: 98.43%
  releasable iron concentration: 14.88 ppm
[4]; [23]
  iron release rate: 49.90%
  relative release rate: 99.03%
  releasable iron concentration: 14.97 ppm
[4]; [24]
  iron release rate: 50.90%
  relative release rate: 101.01%
  releasable iron concentration: 15.27 ppm
[4]; [25]
  iron release rate: 50.37%
  relative release rate: 99.95%
  releasable iron concentration: 15.11 ppm

## O=C1O[C@H]([C@@H](O)CO)C(O)=C1O [ascorbic acid ions]
[1]; [26]
  average iron release rate: 16.90%
  average relative release rate: 33.55%
[1]; [27]
  average iron release rate: 23.17%
  average relative release rate: 45.97%
[1]; [28]
  average iron release rate: 27.88%
  average relative release rate: 55.33%
[1]; [29]
  average iron release rate: 32.08%
  average relative release rate: 63.67%
[1]; [30]
  average iron release rate: 33.35%
  average relative release rate: 66.18%
[1]; [31]
  average iron release rate: 34.92%
  average relative release rate: 69.30%
[1]; [32]
  average iron release rate: 35.85%
  average relative release rate: 71.14%
[1]; [33]
  average iron release rate: 36.86%
  average relative release rate: 73.15%
[1]; [34]
  average iron release rate: 38.23%
  average relative release rate: 75.86%
[1]; [35]
  average iron release rate: 39.40%
  average relative release rate: 78.18%
[1]; [36]
  average iron release rate: 40.57%
  average relative release rate: 80.51%
[1]; [37]
  average iron release rate: 42.29%
  average relative release rate: 83.93%
[1]; [38]
  average iron release rate: 43.63%
  average relative release rate: 86.59%
[1]; [39]
  average iron release rate: 44.67%
  average relative release rate: 88.66%
[1]; [40]
  average iron release rate: 45.61%
  average relative release rate: 90.52%
[1]; [41]
  average iron release rate: 46.28%
  average relative release rate: 91.85%
[1]; [42]
  average iron release rate: 47.22%
  average relative release rate: 93.72%
[1]; [43]
  average iron release rate: 47.86%
  average relative release rate: 94.99%
[1]; [44]
  average iron release rate: 48.99%
  average relative release rate: 97.23%
[1]; [45]
  average iron release rate: 50.01%
  average relative release rate: 99.24%
